Laboratory results reported in patent US9034866B2 (Genentech, Inc., priority 2012, dated 2015).
Values joined by “and” are separate entries in the source; they are usually repeats but may differ in a detail not shown here. Identical values can stand only once.

Biological target: nuclear factor-kappa B (NF-kB)-inducing kinase (NIK) (Homo sapiens (Human), UniProt Q99558)
Assay: NIK Enzyme Inhibition Assay (Transcreener ADP fluorescence polarization)
Type: biochemical
Details: purified NIK 0.2-1 nM, 10 uM ATP, Morrison's quadratic equation; read-out: NIK ADP-FP (Ki uM)
Description: NIK Enzyme Inhibition Assay: The ability of the nuclear factor-kappa B (NF-kB)-inducing kinase (NIK) to catalyze the hydrolysis of adenosine-5′-triphosphate (ATP) was monitored using the Transcreener ADP (adenosine-5′-diphosphate) assay (BellBrook Labs). Purified NIK (0.2-1 nM) derived from a baculovirus-infected insect cell expression system was incubated with test compounds for 1-3.5 hours in 50 mM 2-[4-(2-hydroxyethyl)piperazin-1-yl]ethanesulfonic acid buffer (pH 7.2) containing 10 mM MgCl2, 2 mM dithiothreitol, 10 uM ATP, 0.01% Triton X-100, 0.1% gamma-globulins from bovine blood, 1% dimethylsulfoxide (DMSO), 12 ug/mL ADP antibody and 4 nM ADP-AlexaFluor® 633 tracer. Reactions were quenched by the addition of 20 mM 2,2′,2″,2′″-(ethane-1,2-diyldinitrilo)tetraacetic acid and 0.01% Brij 35. The tracer bound to the antibody was displaced by the ADP generated during the NIK reaction, which causes a decrease in fluorescence polarization that was measured by laser excitation at 633 nm with a Fluorescence Correlation Spectroscopy Plus reader (Evotec AG).

nuclear factor-kappa B (NF-kB)-inducing kinase (NIK), sequence (Q99558 whole entry): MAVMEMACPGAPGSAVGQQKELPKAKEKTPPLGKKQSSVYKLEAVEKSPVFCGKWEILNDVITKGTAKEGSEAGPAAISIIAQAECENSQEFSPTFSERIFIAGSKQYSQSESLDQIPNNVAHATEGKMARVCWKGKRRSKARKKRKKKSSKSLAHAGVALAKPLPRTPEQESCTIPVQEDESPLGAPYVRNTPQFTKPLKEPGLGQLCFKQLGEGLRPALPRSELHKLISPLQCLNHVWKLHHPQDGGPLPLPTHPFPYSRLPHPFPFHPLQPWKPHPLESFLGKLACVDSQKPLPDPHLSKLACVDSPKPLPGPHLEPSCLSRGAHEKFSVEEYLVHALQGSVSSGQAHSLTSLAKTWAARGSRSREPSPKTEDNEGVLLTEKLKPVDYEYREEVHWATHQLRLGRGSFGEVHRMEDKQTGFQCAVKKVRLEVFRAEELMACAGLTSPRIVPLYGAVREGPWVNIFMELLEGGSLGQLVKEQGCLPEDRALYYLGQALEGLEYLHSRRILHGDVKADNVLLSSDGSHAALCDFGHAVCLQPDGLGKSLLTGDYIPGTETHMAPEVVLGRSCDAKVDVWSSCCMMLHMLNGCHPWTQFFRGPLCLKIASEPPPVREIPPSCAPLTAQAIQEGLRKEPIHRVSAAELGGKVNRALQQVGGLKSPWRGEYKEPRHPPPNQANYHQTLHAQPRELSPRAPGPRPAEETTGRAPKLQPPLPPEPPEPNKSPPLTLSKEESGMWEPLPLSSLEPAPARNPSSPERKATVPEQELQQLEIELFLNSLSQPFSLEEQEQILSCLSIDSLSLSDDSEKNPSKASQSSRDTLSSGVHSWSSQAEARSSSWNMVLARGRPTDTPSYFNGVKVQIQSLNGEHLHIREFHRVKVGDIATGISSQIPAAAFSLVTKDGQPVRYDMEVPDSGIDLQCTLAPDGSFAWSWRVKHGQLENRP

| SMILES | Ki |
| --- | --- |
| Cn1nc(-c2ccncc2)nc1-c1c(C(N)=O)nc2n1CCOc1cc(F)c(C#CC(C)(C)O)cc1-2 (racemic) | 0.635 µM |
| Cc1cc([C@](C)(O)C#Cc2ccc3c(c2)-n2nc(C(N)=O)cc2CCO3)no1 | 0.0066 µM |
| CC(O)(C#Cc1cc2c(cc1F)OCCn1cc(C(N)=O)nc1-2)c1cc(CC#N)on1 (racemic) | 0.003 µM |
| Cc1cccnc1C(C)(O)C#Cc1cc2c(cc1F)OCCn1cc(C(N)=O)nc1-2 (racemic) [Example 62] | > 5 µM |
| CC(=O)N1CCN(Cc2c(C(N)=O)nc3n2CCOc2ccc(C#CC(C)(C)O)cc2-3)CC1 | 0.21 µM |
| CC(O)C(C)(O)C#Cc1cc2c(cc1F)OCCn1cc(C(N)=O)nc1-2 (centres unmarked) | 4.9 µM |
| Cc1cc([C@](C)(O)C#Cc2ccc3c(c2)-c2nc(C(N)=O)c(C(=O)NCC4COC4)n2CCO3)no1 [Example 580, (R)-10-(3-hydroxy-3-(5-methylisoxazol-3-yl)but-1-yn-1-yl)-N3-(oxetan-3-ylmeth-yl)-5,6-dihydrobenzo[f]imidazo[1,2-d][1,4]oxazepine-2,3-dicarboxamide] | 0.0026 µM |
| CC(O)(C#Cc1cc2c(cc1F)OCCn1cc(C(N)=O)nc1-2)C(F)(F)F (centres unmarked) [Example 56, 8-fluoro-9-(4,4,4-trifluoro-3-hydroxy-3-methyl-but-1-ynyl)-4,5-dihydro-6-oxa-1,3a-diaza-benzo[e]azulene-2-carboxylic acid amide] | 2 µM |
| CC(O)(C#Cc1ccc2c(c1)-c1nc(C(N)=O)cn1C1CC2C1)c1nc[nH]n1 (centres unmarked) | 0.018 µM |
| Cn1cncc1C(O)c1c(C(N)=O)nc2n1C1CC(C1)c1cc(F)c(C#CC(C)(C)O)cc1-2 (centres unmarked) | 0.031 µM |
| NC(=O)c1cc2n(n1)-c1cc(C#CC3(O)CCCC3O)ccc1OCC2 (centres unmarked) [Example 695] | 1.8 µM and 1.1 µM |
| NC(=O)c1cn2c(n1)-c1cc(C#CC3(O)CCc4cccnc43)ccc1OCC2 (racemic) | 0.0051 µM |
| CN(C)C(=O)C(C)(O)C#Cc1cc2c(cc1F)OCCn1cc(C(N)=O)nc1-2 (racemic) [Example 51] | 0.721 µM |
| CC(O)(C#Cc1cc2c(cc1F)OCCn1cc(C(N)=O)nc1-2)c1ccccn1 (racemic) [Example 54] | 0.024 µM |
| Cc1cc([C@](C)(O)C#Cc2ccc3c(c2)-c2nc(C(N)=O)c(C(=O)N(C)C)n2C2CC3C2)no1 (racemic) | 0.03 µM |
| NC(=O)c1cn2c(n1)-c1cc(C#CC3(O)CC4CCC(C3)N4)ccc1OCC2 (centres unmarked) [Example 31, 9-(3-hydroxy-8-aza-bicyclo[3.2.1]oct-3-ylethynyl)-4,5-dihydro-6-oxa-1,3a-diaza-benzo[e]azulene-2-carboxylic acid amide] | > 5 µM |
| CNC(=O)c1c(C(N)=O)nc2n1C1CC(C1)c1cc(F)c(C#CC(C)(O)CO)cc1-2 (centres unmarked) | 0.01 µM |
| CC(C)(O)C#Cc1cc2c(cc1F)OCCn1c-2nc(C(N)=O)c1C#N [Example 33, 3-cyano-8-fluoro-9-(3-hydroxy-3-methyl-but-1-ynyl)-4,5-dihydro-6-oxa-1,3a-diaza-benzo[e]azulene-2-carboxylic acid amide] | 0.172 µM |
| CC(O)(C#Cc1cc2c(cc1F)OCCn1cc(C(N)=O)nc1-2)C1(C)CC1 (racemic) [Example 64] | > 5 µM |

| SMILES | Ki |
| --- | --- |
| CN1CC[C@@](O)(C#Cc2ccc3c(c2)-c2nc(C(N)=O)c(C(=O)NC4CC4)n2C2CC3C2)C1=O | 0.016 µM |
| CC(C)(O)C#Cc1ccc2c(c1)-c1nc(C(N)=O)c(CN3CCC(C#N)C3)n1CCO2 (centres unmarked) | 0.0019 µM |
| Cc1nn(C)cc1C(O)c1c(C(N)=O)nc2n1CCOc1cc(F)c(C#CC(C)(C)O)cc1-2 (centres unmarked) [Example 169] | 0.023 µM |
| Cc1cc([C@](C)(O)C#Cc2ccc3c(c2)-c2nc(C(N)=O)c(C(=O)NC4CCOCC4)n2CCO3)no1 [Example 712, (R)-10-(3-hydroxy-3-(5-methylisoxazol-3-yl)but-1-yn-1-yl)-N3-(tetrahydro-2H-pyran-4-yl)-5,6-dihydrobenzo[f]imidazo[1,2-d][1,4]oxazepine-2,3-dicarboxamide] | 1 µM |
| CN(C)Cc1c(C(N)=O)nc2n1C1CC(C1)c1cc(F)c(C#CC(C)(C)O)cc1-2 (racemic) | 0.6 µM |
| CC(O)(C#Cc1cc2c(cc1F)OCCn1cc(C(N)=O)nc1-2)C(=O)NC1CC1 (centres unmarked) [Example 94] | 0.854 µM |
| CN(C)C1COc2ccc(C#CC(C)(C)O)cc2-c2nc(C(N)=O)sc21 (centres unmarked) [Example 10, 4-dimethylamino-9-(3-hydroxy-3-meth-yl-but-1-ynyl)-4,5-dihydro-6-oxa-3-thia-1-aza-benzo[e]azulene-2-carboxylic acid amide] | 0.096 µM |
| CC(O)(C#Cc1cc2c(cc1F)OCCn1cc(C(N)=O)nc1-2)c1ccc(Cl)cn1 (centres unmarked) [Example 102, 9-[3-(5-chloro-pyridin-2-yl)-3-hydroxy-but-1-ynyl]-8-fluoro-4,5-dihydro-6-oxa-1,3a-diaza-benzo[e]azulene-2-carboxy-lic acid amide] | > 5 µM |
| CC(C)(O)C#Cc1cc2c(cc1F)OCCn1c-2nc(C(N)=O)c1C(=O)NCC1COC1 [Example 91] | 0.004 µM |
| CC(O)(C#Cc1cc2c(cc1F)C1CC(C1)n1c-2nc(C(N)=O)c1-c1nc(C2CC2)n[nH]1)CO (centres unmarked) | 0.0065 µM |
| CC(C)(O)C#Cc1ccc2c(c1)-c1nc(C(N)=O)sc1C(F)(F)CO2 [Example 27, 4,4-diriuoro-9-(3-hydroxy-3-methyl-but-1-ynyl)-4,5-dihydro-6-oxa-3-thia-1-aza-benzo[c]azulene-2-carboxylic acid amide] | 0.057 µM |
| CN1CC[C@@](O)(C#Cc2ccc3c(c2)-c2nc(C(N)=O)sc2C2CC3C2)C1=O [Example 609, (R)-9-((3-hydroxy-1-methyl-2-oxopyrro-lidin-3-yl)ethynyl)-5,6-dihydro-4H-4,6-methanobenzo[6,7]cyclohepta[1,2-d]thiazole-2-carboxamide] | 0.00094 µM |
| CNC(=O)c1c(C(N)=O)nc2n1CCOc1ccc(C#C[C@](C)(O)c3ccccn3)cc1-2 | > 5 µM |
| CC(O)(C#Cc1cc2c(cc1F)OCCn1cc(C(N)=O)nc1-2)c1ncccn1 (centres unmarked) [Example 16, 8-fluoro-9-(3-hydroxy-3-pyrimidin-2-yl-but-1-ynyl)-4,5-dihydro-6-oxa-1,3a-diaza-benzo[e]azulene-2-carboxylic acid amide] | 0.025 µM |
| NC(=O)c1cn2c(n1)-c1cc(C#CC3(O)CCC3)c(F)cc1OCC2 [Example 17, 8-fluoro-9-(1-hydroxy-cyclobutylethynyl)-4,5-dihydro-6-oxa-1,3a-diaza-benzo[e]azulene-2-carboxylic acid amide] | 0.01 µM |
| Cc1nnc([C@](C)(O)C#Cc2ccc3c(c2)-n2nc(C(N)=O)cc2C(C)CO3)o1 (some centres unmarked) [Example 497] | 0.039 µM |
| CN1CC[C@@](O)(C#Cc2ccc3c(c2)-c2nc(C(N)=O)c(C(F)F)n2C2CC3C2)C1=O [Example 664, 3-(difluoromethyl)-10-[2-[(3R)-3-hy-droxy-1-methyl-2-oxo-pyrrolidin-3-yl]ethy-nyl]-5,6,7,12-tetrahydro-5,7-methano-benzo[c]imidazo[1,2-a]azepine-2-carboxamide] | 0.00078 µM |
| Cc1nc(-c2c(C(N)=O)nc3n2CCOc2cc(F)c(C#CC(C)(C)O)cc2-3)n(CC(F)(F)F)n1 | 0.502 µM |
| CC(O)(C#Cc1cc2c(cc1F)OCCn1cc(C(N)=O)nc1-2)c1cnccn1 (centres unmarked) [Example 15, 8-fluoro-9-(3-hydroxy-3-pyrazin-2-yl-but-1-ynyl)-4,5-dihydro-6-oxa-1,3a-diaza-benzo[e]azulene-2-carboxylic acid amide] | 0.036 µM |
